The text below walks through data of ChEMBL document CHEMBL3045585, “Combinatorial approach: identification of potential antifungals from triazole minilibraries” (2011).

In brackets after ≈: the same amount, converted by molar mass.

Type in all cases: functional
In one assay the test system is Fusarium oxysporum. The assay is described as follows: Antifungal activity against Fusarium oxysporum NCIM 1008 by serial dilution method.
The test system of another assay is Aspergillus flavus. The assay is described as follows: Antifungal activity against Aspergillus flavus NCIM 536 by serial dilution method.
For a further assay, the system named is Penicillium chrysogenum. The assay is described as follows: Antifungal activity against Penicillium chrysogenum NCIM 725 by serial dilution method.
Another assay relates to Aspergillus niger. The assay is described as follows: Antifungal activity against Aspergillus niger NCIM 945 by serial dilution method.

What is called MIC is the lowest concentration that inhibits growth of the organism. A low value points to greater potency.

On to `Nc1ccccc1-c1nnc(SCc2ccccc2)n1/N=C/c1ccc(Cl)cc1`, for which the MIC was 62 µg/mL (≈ 148 µM) against Fusarium oxysporum, 125 µg/mL (≈ 298 µM) in the assay with Aspergillus flavus, 31 µg/mL (≈ 73.8 µM) in the assay on Penicillium chrysogenum and 125 µg/mL (≈ 298 µM) against Aspergillus niger.
Turning to `COc1ccc(/C=N/n2c(SCc3ccccc3)nnc2-c2ccccc2N)cc1`, the MIC in the assay with Fusarium oxysporum came out at 250 µg/mL (≈ 602 µM); against Aspergillus flavus, 32 µg/mL (≈ 77 µM); against Penicillium chrysogenum, 125 µg/mL (≈ 301 µM); against Aspergillus niger, 62 µg/mL (≈ 149 µM).
The like results for `CN(C)c1ccc(/C=N/n2c(SCc3ccccc3)nnc2-c2ccccc2N)cc1` were, in that order, 32 µg/mL (≈ 74.7 µM), 125 µg/mL (≈ 292 µM), 250 µg/mL (≈ 583 µM) and 62 µg/mL (≈ 145 µM).
For `COc1ccc(/C=N/n2c(SCc3ccccc3)nnc2-c2ccncc2)cc1`, the MIC was 250 µg/mL (≈ 623 µM) with Fusarium oxysporum, 250 µg/mL (≈ 623 µM) against Aspergillus flavus, 125 µg/mL (≈ 311 µM) with Penicillium chrysogenum and 31 µg/mL (≈ 77.2 µM) against Aspergillus niger.
